Results on 7 molecules are retold here after publication PMC10349078, “Sequence-based drug design as a concept in computational drug design” (Nature Communications, 2023).

pIC50, pKd: −log10 of the molar value.

One assay has as its target T1, SPOP^MATH (Homo sapiens, UniProt O43791).
T1 construct: MATH domain, residues 28-166; GST tag cut with PreScission protease; E. coli BL21-CodonPlus (DE3)-RIPL
Nature of the assay: fluorescence polarization, displacement of FITC-puc_SBC1 peptide. It counts as binding. On the technique in general: In fluorescence polarisation assays a small probe gives low polarisation when free and higher when bound to something large.

Another assay has as its target T2, RNF130 (Homo sapiens, UniProt Q86XS8).
T2 construct: residues 1-304, C-terminal His8-Flag tag kept, expressed in Expi-293F
T2 sequence (Q86XS8 28-304 limits assumed): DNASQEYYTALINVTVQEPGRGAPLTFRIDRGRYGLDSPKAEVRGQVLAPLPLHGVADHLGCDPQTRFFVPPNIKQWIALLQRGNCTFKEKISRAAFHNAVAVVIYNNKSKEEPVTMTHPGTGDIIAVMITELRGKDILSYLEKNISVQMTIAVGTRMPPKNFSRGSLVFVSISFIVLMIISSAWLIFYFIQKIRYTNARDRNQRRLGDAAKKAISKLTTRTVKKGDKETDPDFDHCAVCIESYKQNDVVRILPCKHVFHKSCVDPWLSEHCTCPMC
As to the kind of experiment: ITC. It counts as binding. Particulars: […] RNF130 in cell, […] compound injected; N = […].

Assay [1] addresses T3, ARF1^WT (Δ17ARF1) (Homo sapiens, UniProt P84077).
T3 construct: N-terminally truncated (first 17 residues removed), His6-tag (pProEX HTb), E. coli BL21-CodonPlus (DE3)-RIPL
Nature of the assay: protein thermal shift (SYPRO Orange); intact-protein and tandem MS. Particulars: […] protein, covalent at C159. It counts as binding.

Assay [2] has as its target T4, ARF1^WT (Δ17ARF1) (Homo sapiens, UniProt P84077, C159A).
T4 construct: N-terminally truncated (first 17 residues removed), His6-tag (pProEX HTb), E. coli BL21-CodonPlus (DE3)-RIPL
As to the kind of experiment: protein thermal shift (SYPRO Orange). It counts as binding. To be noted: no covalent adduct by mass spectrometry. The text has this:
protein thermal shift (SYPRO Orange) on ARF1^WT (Δ17ARF1) | PPIs with ARF1^C159A where C159 was mutated to alanine. No Tm shifts were observed

The target of assay [3] is T3, ARF1^WT (Δ17ARF1). As to the kind of experiment: GDP/MANT-GTP nucleotide exchange, fluorescence. To be noted: exchange catalysed by […] human ARNO Sec7 ([…]-250). It counts as biochemical.

T3 sequence (P84077 18-181, stated change not applied): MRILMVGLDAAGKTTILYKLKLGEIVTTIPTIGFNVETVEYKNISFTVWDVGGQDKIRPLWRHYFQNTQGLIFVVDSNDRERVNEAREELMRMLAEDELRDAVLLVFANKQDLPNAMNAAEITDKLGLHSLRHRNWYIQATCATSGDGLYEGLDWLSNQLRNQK
T1 sequence (O43791 28-166): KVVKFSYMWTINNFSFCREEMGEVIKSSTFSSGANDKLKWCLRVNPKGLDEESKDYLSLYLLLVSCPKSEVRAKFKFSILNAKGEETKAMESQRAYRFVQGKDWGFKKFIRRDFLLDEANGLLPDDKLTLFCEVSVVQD
T4 sequence (P84077 18-181 C159A): as the sequence (P84077 18-181, stated change not applied) above, with C142A counted along it

A word on the pIC50: it is −log10 of the IC50, conventionally taken in molar units. Consider `Cc1nnc(SCC2=C(C(=O)O)N3C(=O)C(NC(=O)c4ccc(COc5ccccc5Cl)o4)C3SC2)s1` (stereo not drawn) [221C7], for which the pIC50 on SPOP^MATH was 5.35. On the same count and under the same terms, then `C=CC1=C(C(=O)O)N2C(=O)[C@@H](NC(=O)CCC3CCCC3)[C@H]2SC1` [222A5, (6R,7R)−7-(3-cyclopentylpropanamido)−8-oxo-3-vinyl-5-thia-1-azabicyclo[4.2.0]oct-2-ene-2-carboxylic acid], with less than 4.00. Broadly, the pKd is the negative decadic logarithm of the Kd, by convention in mol/L. Regarding `CS(=O)(=O)c1nnc(CN2C3C=C(c4ccccc4)CC2CC3)s1` (stereo not drawn) [iRNF130-63], on RNF130, the negative logarithm of the Kd (pKd) is 5.91.

`Cc1c(OCC(F)(F)F)ccnc1C[S+]([O-])c1nc2ccccc2[nH]1` (stereo not drawn) [lansoprazole]: at ARF1^WT (Δ17ARF1) [1] (no DTT), the Tm shift result was “PPIs could bind directly to wild-type ARF1 (ARF1^WT) and destabilize the protein”. As to `COc1ccc2[nH]c([S+]([O-])Cc3ncc(C)c(OC)c3C)nc2c1` (stereo not drawn) [omeprazole], on ARF1^WT (Δ17ARF1) [1] (no DTT), the Tm shift result is “PPIs could bind directly to wild-type ARF1 (ARF1^WT) and destabilize the protein”. On to `COc1ccnc(C[S+]([O-])c2nc3cc(OC(F)F)ccc3[nH]2)c1OC` (stereo not drawn) [pantoprazole], for which the Tm shift result at ARF1^WT (Δ17ARF1) [1] (no DTT) was “PPIs could bind directly to wild-type ARF1 (ARF1^WT) and destabilize the protein”. Regarding `COCCCOc1ccnc(C[S+]([O-])c2nc3ccccc3[nH]2)c1C` (stereo not drawn) [rabeprazole], the Tm shift entry on ARF1^WT (Δ17ARF1) [2] is “PPIs with ARF1^C159A where C159 was mutated to alanine. No Tm shifts were observed”; on ARF1^WT (Δ17ARF1) [1] (no DTT; […] compound) it was “PPIs could bind directly to wild-type ARF1 (ARF1^WT) and destabilize the protein”. For the same molecule, the “GDP/MANT-GTP nucleotide exchange, fluorescence” value on ARF1^WT (Δ17ARF1) [3] is listed as “rabeprazole suppressed the nucleotide exchange process in a concentration-dependent manner”.
